Experimental data published in PMC11923649, “Novel C-2 Aromatic Heterocycle-Substituted Triterpenoids Inhibit Hedgehog Signaling in GLI1 Overexpression Cancer Cells” (ACS Omega, 2025).

Legend:
[1] = tested on: DAOY (medulloblastoma); assay: MTS cytotoxicity assay, 72 h, DAOY; type: cell-based; settings: Homo sapiens, read-out: IC50 medulloblastoma (DAYO)
Excerpt: (§1) Concerning nonsmall cell lung carcinoma (NSCLC)-derived cell lines, we selected two subtype groups with different expression levels of GLI1, based on a study by Yuan et al.[35] The first group includes cell lines where GLI1 is highly expressed (A549 and NCI-H522), while the second group includes low GLI1-expressing cell lines (HOP-62 and NCI-H322). It has been established that cell lines expressing high levels of GLI1 are relatively resistant to SMO antagonists due to a hyper-activated HH signaling pathway.[35] […] These interesting findings may indicate the potential of 11b to overcome hyper-activated HH signaling in particular NSCLC subsets. […] Lower activity was observed against medulloblastoma (DAYO) and glioblastoma (T98G)-derived cell lines with an IC50 above 20 μmol/L.
(§2) The human prostate tumor-derived cell line DU145 was obtained from ATCC (American Type Culture Collection) and cultured in RPMI 1640 (Roswell Park Memorial Institute) medium supplemented with 10% (v/v) fetal bovine serum (FBS). Human prostate tumor-derived LNCaP cells were obtained from ATCC and cultured in RPMI 1640 medium supplemented with 10% FBS. […] Finally, the absorbance at 490 nm was measured using an EnVision multifunctional modular reader (PerkinElmer). The IC50 value was determined using Dotmatics software.

[2] = tested on: T98G (glioblastoma); assay: MTS cytotoxicity assay, 72 h, T98G; type: cell-based; settings: Homo sapiens
Excerpt: as §1, §2

[3] = tested on: HOP-62 (NSCLC, low GLI1); assay: MTS cytotoxicity assay, 72 h, HOP-62; type: cell-based, human; settings: compared with A549
Excerpt: as §1, §2

C=C(C)[C@@H]1CC[C@]2(C(=O)O)CC[C@]3(C)C(CCC4[C@@]5(C)C=C(c6ccoc6)C(=O)C(C)(C)C5CC[C@]43C)C12 (stereo partly drawn) [Compound 11b, 2-(Furan-3-yl)-3-oxolupa-1,20(29)-dien-28-oic acid]
IC50 [1]: > 20 µM | IC50 [2]: > 20 µM | IC50 of HOP-62 relative to A549 [3]: almost two times higher
